Results as given in article PMC3711097 (Molecular bioSystems, 2013).

Test system: KedF
Test: continuous spectrophotometric assay with periodate, […] nm
Format: biochemical, Streptoalloteichus sp. ATCC 53650
Details: 50 mM phosphate pH 8.0, 25 °C, 3 mM sodium periodate

Row | SMILES | Km (4.0 μM KedF) [µM] | Km (9.6 μM KedF) [µM]
1 | c1ccc([C@H]2CO2)cc1 [(S)-styrene oxide] | 910 ± 100 | –
2 | c1ccc([C@@H]2CO2)cc1 [(R)-styrene oxide] | – | 3500 ± 640
